Reference: patent US9067892B2, “Spiroheterocyclic N-oxypiperidines as pesticides” (Syngenta Crop Protection, Inc., priority 2008, dated 2015)

What was measured:
[1] = test system: Tetranychus urticae (two-spotted spider mite); assay: Example B4: Tetranychus urticae, mixed population, feeding/residual contact activity, preventive; type: in vivo; conditions: foliar, 192 h, bean leaf discs sprayed, 8 days, egg, larval and adult mortality
Excerpt: Activity Against Tetranychus urticae (Two-Spotted Spider Mite) (Mixed Population, Feeding/Residual Contact Activity, Preventive) Bean leaf discs on agar in 24-well microtiter plates are sprayed with test solutions. […] 8 days later, discs are checked for egg mortality, larval mortality, and adult mortality.

[2] = test system: Myzus persicae (green peach aphid); assay: Example B16: Myzus persicae on pepper plants, feeding/residual contact activity; type: in vivo; conditions: 144 h, infested pepper plants sprayed, 6 days after treatment, mortality, read-out: activity against Myzus persicae
[3] = test system: Myzus persicae (green peach aphid); assay: Example B1: Myzus persicae, mixed population, feeding/residual contact activity, preventive; conditions: foliar, 144 h, read-out: activity
[4] = test system: Myzus persicae (green peach aphid); assay: Example B2: Myzus persicae, mixed population, systemic/feeding activity, curative; conditions: 144 h, read-out: activity

SMILES | pest or weed control at 400 ppm [1] [%] | pest or weed control at 200 ppm [2] [%] | pest or weed control at 400 ppm [3] [%] | pest or weed control at 400 ppm [4] [%]
CCOC(=O)OC1=C(c2c(C)cc(C)cc2C)C(=O)N(CC2CCCO2)C12CCN(OC)CC2 (stereo not drawn) [P1.26] | > 80 | – | – | –
CON1CCC2(CC1)C(O)=C(c1c(C)cc(C)cc1C)C(=O)N2CC1(C)COC1 [P2.30] | – | ≥ 80 | – | –
CON1CCC2(CC1)C(O)=C(c1c(C)ccc(Cl)c1C)C(=O)N2C [P2.27] | – | ≥ 80 | – | –
CON1CCC2(CC1)C(O)=C(c1c(F)ccc(C)c1Cl)C(=O)N2C [P2.13] | > 80 | – | – | –
CON1CCC2(CC1)C(O)=C(c1c(C)cc(Cl)cc1C)C(=O)N2C [P2.33] | – | ≥ 80 | > 80 | –
CCOC(=O)OC1=C(c2c(C)cc(C)cc2C)C(=O)N(CCCOC)C12CCN(OC)CC2 [P1.16] | > 80 | ≥ 80 | > 80 | –
CCOC(=O)OC1=C(c2c(C)cc(C)cc2C)C(=O)N(CCOCOC)C12CCN(OC)CC2 [P1.17] | – | – | > 80 | > 80
CCOC(=O)OC1=C(c2c(Cl)ccc(C)c2F)C(=O)N(C)C12CCN(OC)CC2 [P1.9] | > 80 | – | – | –
CON1CCC2(CC1)C(O)=C(c1cc(C)c(Cl)cc1C)C(=O)N2C [P2.15] | > 80 | – | – | –
CCOC(=O)OC1=C(c2c(C)ccc(Cl)c2C)C(=O)N(C)C12CCN(OC)CC2 [P1.27] | – | ≥ 80 | > 80 | –
CON1CCC2(CC1)C(O)=C(c1c(C)cc(C)cc1C)C(=O)N2CC1CCCO1 (stereo not drawn) [P2.32] | > 80 | – | – | –
CON1CCC2(CC1)C(OCc1ccccc1)=C(c1c(C)cc(C)cc1C)C(=O)N2CC1CC1 [P3.8, 4-benzyloxy-1-cyclopropylmethyl-8-methoxy-3-(2,4,6-trimethyl-phenyl)-1,8-diaza-spiro[4.5]dec-3-en-2-one] | > 80 | – | – | –
CON1CCC2(CC1)C(O)=C(c1ccc(Cl)cc1Cl)C(=O)N2CC(F)F [P2.4] | – | – | > 80 | –
CCOC(=O)OC1=C(c2c(C)cccc2C)C(=O)N(C)C12CCN(OC)CC2 [P1.13] | – | ≥ 80 | > 80 | –
CON1CCC2(CC1)C(O)=C(c1c(C)ccc(C)c1C)C(=O)N2C [P2.24] | – | ≥ 80 | – | –
CCOC(=O)OC1=C(c2c(C)ccc(C)c2C)C(=O)N(C)C12CCN(OC)CC2 [P1.21] | > 80 | ≥ 80 | – | –
CON1CCC2(CC1)C(O)=C(c1c(C)cc(Br)cc1Cl)C(=O)N2C [P2.34] | – | ≥ 80 | – | –
CON1CCC2(CC1)C(O)=C(c1c(C)cc(C)cc1C)C(=O)N2C1CC1 [P2.10] | – | – | > 80 | –
CON1CCC2(CC1)C(O)=C(c1c(C)cc(Br)cc1C)C(=O)N2C [P2.16] | – | ≥ 80 | > 80 | > 80
CCOC(=O)OC1=C(c2c(C)cc(C)cc2C)C(=O)N(C2CC2)C12CCN(OC)CC2 [P1.7] | – | – | > 80 | –
CCOC(=O)OC1=C(c2c(C)cc(C)cc2Cl)C(=O)N(C)C12CCN(OC)CC2 [P1.6] | > 80 | – | > 80 | –
CON1CCC2(CC1)C(O)=C(c1c(C)cc(C)cc1Cl)C(=O)N2C [P2.9] | > 80 | – | > 80 | > 80
CCOC(=O)OC1=C(c2ccc(C)cc2C)C(=O)N(C)C12CCN(OC)CC2 [P1.25] | > 80 | ≥ 80 | > 80 | –
CON1CCC2(CC1)C(O)=C(c1c(C)cccc1C)C(=O)N2C [P2.17] | – | ≥ 80 | > 80 | –
CCOC(=O)OC1=C(c2c(F)ccc(C)c2Cl)C(=O)N(C)C12CCN(OC)CC2 [P1.10] | – | – | – | > 80
CCOC(=O)OC1=C(c2c(C)cc(Br)cc2C)C(=O)N(C)C12CCN(OC)CC2 [P1.12] | > 80 | ≥ 80 | > 80 | –
CCOC(=O)OC1=C(c2c(C)cc(Cl)cc2C)C(=O)N(C)C12CCN(OC)CC2 [P1.29] | – | ≥ 80 | > 80 | –
